# Literature values in patent publication US20050147663A1, “Method of treatment for improved bioavailability” (priority 2003, published 2005).
# Experiments:
# [1] = enhanced by food in some instances, reduced in others
# [2] = standard breakfast; capsules
# [3] = delayed release formulations, drug given 30 minutes after food
SMILES,bioavailability affected by the presence of food [1],other results
Nc1ccn([C@@H]2CS[C@H](CO)O2)c(=O)n1 [lamivudine],affected,
CC(C)c1nc(CN(C)C(=O)N[C@H](C(=O)N[C@@H](Cc2ccccc2)C[C@H](O)[C@H](Cc2ccccc2)NC(=O)OCc2cncs2)C(C)C)cs1 [ritonavir],affected,
Cc1cn([C@H]2C[C@H](N=[N+]=[N-])[C@@H](CO)O2)c(=O)[nH]c1=O [zidovudine],affected,
COc1ccnc(C[S+]([O-])c2nc3ccc(OC(F)F)cc3[nH]2)c1OC (centres unmarked) [pantoprazole sodium],,"Tmax variability (delayed release product): highly variable; Tmax change when given with food (delayed release product, given with food): can increase significantly"
Cc1c(O)cccc1C(=O)N[C@@H](CSc1ccccc1)[C@H](O)CN1C[C@H]2CCCC[C@H]2C[C@H]1C(=O)NC(C)(C)C [nelfinavir],affected,
COc1ccc2[n-]c([S+]([O-])Cc3ncc(C)c(OC)c3C)nc2c1.COc1ccc2[n-]c([S+]([O-])Cc3ncc(C)c(OC)c3C)nc2c1.[Mg+2] (centres unmarked) [esomeprazole magnesium],,"decrease of the drug AUC (delayed release capsules, administration after food intake): 43-53%"
C[C@H]1c2cccc(O)c2C(=O)C2=C(O)[C@]3(O)C(=O)C(C(N)=O)=C(O)[C@@H](N(C)C)[C@@H]3[C@@H](O)[C@@H]21 [doxycycline],,bioavailability as judged by AUC and Cmax [2]: reduced
Cc1c(OCC(F)(F)F)ccnc1C[S+]([O-])c1nc2ccccc2[nH]1 (centres unmarked) [lansoprazole],,AUC diminished [3]: 50-70%; Cmax diminished [3]: 50-70%
CC(C)(C)NC(=O)[C@@H]1C[C@@H]2CCCC[C@@H]2CN1C[C@@H](O)[C@H](Cc1ccccc1)NC(=O)[C@H](CC(N)=O)NC(=O)c1ccc2ccccc2n1 [saquinavir],affected,
COc1ccc2[nH]c([S+]([O-])Cc3ncc(C)c(OC)c3C)nc2c1 (centres unmarked) [omeprazole],,"reduction in Cmax (20 mg delayed release capsule, administered with applesauce): 25%; food effect (40 mg delayed release capsule, with applesauce): does not show a food effect"
Nc1ccn([C@H]2CC[C@@H](CO)O2)c(=O)n1 [zalcitabine],affected,

# More lines, main results first:
bioavailability affected by the presence of food [1],SMILES,other results
affected,CC(C)(C)NC(=O)[C@@H]1CN(Cc2cccnc2)CCN1C[C@@H](O)C[C@@H](Cc1ccccc1)C(=O)N[C@H]1c2ccccc2C[C@H]1O [indinavir],
affected,CC(C)CN(C[C@@H](O)[C@H](Cc1ccccc1)NC(=O)O[C@H]1CCOC1)S(=O)(=O)c1ccc(N)cc1 [amprenavir],
affected,O=C1Nc2ccc(Cl)cc2[C@@](C#CC2CC2)(C(F)(F)F)O1 [efavirenz],
